From patent publication US20150148311A1, “NON-SYSTEMIC TGR5 AGONISTS” (Ardelyx, Inc., priority 2011, published 2015) come the findings set out here.

In test [1] the target is T1, endogenously expressed TGR5 in NCI H716 (Homo sapiens, UniProt Q8TDU6).
T1 construct: human caecum carcinoma cell line NCI-H716 which endogenously expresses human TGR5; endogenous in cells; host or cells: NCI-H716
T1 sequence (Q8TDU6 1-330): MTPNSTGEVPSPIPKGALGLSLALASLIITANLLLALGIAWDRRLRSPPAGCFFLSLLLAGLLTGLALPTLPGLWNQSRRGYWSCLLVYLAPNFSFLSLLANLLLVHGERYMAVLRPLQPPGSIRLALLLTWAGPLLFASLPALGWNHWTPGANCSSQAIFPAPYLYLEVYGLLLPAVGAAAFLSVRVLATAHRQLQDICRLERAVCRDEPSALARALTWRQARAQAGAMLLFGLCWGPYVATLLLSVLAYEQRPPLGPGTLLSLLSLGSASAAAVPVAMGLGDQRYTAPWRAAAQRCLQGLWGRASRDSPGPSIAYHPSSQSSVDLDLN
Kind of test: Cell-based TGR5 assay, NCI-H716 cells endogenously expressing human TGR5, cAMP by HTRF. The note with it: 30 min at 37 C, 22 nM to 50 μM, read-out: pEC50 endogenously expressed TGR5 in NCI H716 (converted). Here is the method:
Two primary cell based screens were performed. The first utilized HEK293 cells stably transfected to heterologously express human TGR5. The second screen used the human caecum carcinoma cell line NCI-H716 which endogenously expresses human TGR5. In both assays, cells are treated with candidate TGR5 activators and assessed for the increased intercellular levels of cAMP. […]
TGR5-mediated cAMP generation was measured using a homogeneous time resolved fluorescence (HTRF) detection method (Cisbio). Test compounds were dissolved in DMSO to a final concentration of 10 mM. Serial 3-fold dilutions of the stock solution were made in DMSO, and these solutions were diluted 100-fold into Hanks Balanced Salt Solution supplemented with 10 mM HEPES pH 7.4 and 0.5 mM isobutyl methylxanthine (IBMX). Prior to assay, culture medium was replaced with fresh medium, and test compounds diluted in HBSS/HEPES/IBMX were added to the cells and incubated at 37° C. for 30 minutes.
Following incubation with test compounds, cAMP was detected through the successive addition of cAMP labeled with the modified allophyocyanin dye d2 (cAMP-d2) and cryptate-labeled anti-cAMP in lysis buffer, and reading HTRF per the manufacturer's instructions. A standard curve was used to convert the raw HTRF data into [cAMP].
(In general: TR-FRET usually uses a lanthanide donor and a delayed reading to cut background.)

The next test has as its target T2, human TGR5 (Homo sapiens, UniProt Q8TDU6).
T2 construct: expressed in transfected cells
T2 sequence (Q8TDU6 1-330): T1 sequence (Q8TDU6 1-330)
The test can be described thus: Cell-based TGR5 assay, HEK293 cells stably expressing human TGR5, cAMP by HTRF. The note with it: HEK293 cells stably expressing human TGR5, 30 min at 37 C, 0.05 nM to 10 μM, read-out: pEC50 Human TGR5 (converted). The method, boiled down:
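cAMP HTRF read-out, converted to concentration via standard curve, after a 30 min, 37 °C compound exposure in HBSS with 10 mM HEPES pH 7.4 and 0.5 mM IBMX, compounds serially diluted 3-fold from 10 mM DMSO stock then 100-fold. Cells: stable human TGR5 HEK293, or NCI-H716 expressing TGR5 endogenously.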

Take `O=C(N1CCCc2ncccc21)C1(OCc2cc(Cl)ccc2Cl)CC1` [Example 86, 1-([1-[(2,5-dichlorophenyl)methoxy]cyclopropyl]carbonyl)-1,2,3,4-tetrahydro-1,5-naphthyridine]: the EC50 in test [1] is more than 50.1 µM; at human TGR5, more than 10 µM.

Consider `COc1cc(Cl)c(CN2CCC[C@H]2C(=O)N2CCN(C3CC3)c3ccccc32)cc1Cl` [Example 89, (S)-(4-cyclopropyl-3,4-dihydroquinoxalin-1(2H)-yl)(1-(2,5-dichloro-4-methoxybenzyl)pyrrolidin-2-yl)methanone], for which the figures for the EC50 (in test [1]; on human TGR5) were 1.26 to 50.1 µM and 0.126 to 1 µM, respectively.

On to `O=C(N1CCN(C2CC2)c2ccccc21)C1(NCc2cc(Cl)ccc2Cl)COC1` [Example 90, (4-cyclopropyl-3,4-dihydroquinoxalin-1(2H)-yl)(3-(2,5-dichlorobenzylamino)oxetan-3-yl)methanone], for which the EC50 in test [1] was 0.126 to 1 µM; at human TGR5, less than 0.1 µM.

As to `CN(C[C@H](O)[C@@H](O)[C@H](O)[C@H](O)CO)C(=O)CCc1cc(Cl)c(CNC2(C(=O)N3CCN(C4CC4)c4ccccc43)CC2)cc1Cl` [Example 91, 3-(2,5-dichloro-4-((1-(4-cyclopropyl-1,2,3,4-tetrahydroquinoxaline-1-carbonyl)cyclopropylamino)methyl)phenyl)-N-methyl-N-((2S,3R,4R,5R)-2,3,4,5,6-pentahydroxyhexyl)propanamide], the EC50 (in test [1]; on human TGR5) was 0.126 to 1 µM throughout.

Regarding `NCCCc1cc(Cl)c(CNC2(C(=O)N3CCN(C4CC4)c4ccccc43)CC2)cc1Cl` [Example 92, (1-(4-(3-aminopropyl)-2,5-dichlorobenzylamino)cyclopropyl)(4-cyclopropyl-3,4-dihydroquinoxalin-1(2H)-yl)methanone], the EC50 (in test [1]; at human TGR5) was 1.26 to 50.1 µM each time.

On to `CN(C[C@H](O)[C@@H](O)[C@H](O)[C@H](O)CO)C(=O)NCCCc1cc(Cl)c(CNC2(C(=O)N3CCN(C4CC4)c4ccccc43)CC2)cc1Cl` [Example 93, 3-(3-(2,5-dichloro-4-((1-(4-cyclopropyl-1,2,3,4-tetrahydroquinoxaline-1-carbonyl)cyclopropylamino)methyl)phenyl)propyl)-1-methyl-1-((2S,3R,4R,5R)-2,3,4,5,6-pentahydroxyhexyl)urea], for which the EC50 (in test [1]; at human TGR5) was 0.126 to 1 µM each time.

As to `CC(OC1(C(=O)N2CCN(C3CC3)c3ccccc32)CC1)c1cc(Cl)ccc1Cl` (stereo not shown) [Example 94, (4-cyclopropyl-3,4-dihydroquinoxalin-1(2H)-yl)(1-(1-(2,5-dichlorophenyl)ethoxy)cyclopropyl)methanone], the EC50 (in test [1]; at human TGR5) was 1.26 to 50.1 µM in each case.

As for `O=C(CCc1cc(Cl)c(CNC2(C(=O)N3CCN(C4CC4)c4ccccc43)CC2)cc1Cl)NCCOCCOCCNC(=O)CCc1cc(Cl)c(CNC2(C(=O)N3CCN(C4CC4)c4ccccc43)CC2)cc1Cl` [Example 95, N,N′-(2,2′-(ethane-1,2-diylbis(oxy))bis(ethane-2,1-diyl))bis(3-(2,5-dichloro-4-((1-(4-cyclopropyl-1,2,3,4-tetrahydroquinoxaline-1-carbonyl)cyclopropylamino)methyl)phenyl)propanamide)], the EC50 in test [1] is 1.26 to 50.1 µM; on human TGR5 it was less than 0.1 µM.

For `O=C(N1CCN(C2CC2)c2ccccc21)C1(OCc2cc(Cl)ccc2Cl)COC1` [Example 179, (4-cyclopropyl-3,4-dihydroquinoxalin-1(2H)-yl)(3-(2,5-dichlorobenzyloxyl)oxetan-3-yl)methanone], the EC50 in test [1] was 0.126 to 1 µM; at human TGR5 it was less than 0.1 µM.

`O=C(N1CCN(C2CC2)c2ccccc21)C1(CSc2cc(Cl)ccc2Cl)CC1` [Example 180, (4-cyclopropyl-3,4-dihydroquinoxalin-1(2H)-yl)(1-((2,5-dichlorophenylthio)methyl)cyclopropyl)methanone]: the EC50 is 0.126 to 1 µM in test [1] and less than 0.1 µM on human TGR5.

`CN(C[C@H](O)[C@@H](O)[C@H](O)[C@H](O)CO)C(=O)NCCOc1cc(Cl)c(CN2CSC[C@H]2C(=O)N2CCN(C3CC3)c3ccccc32)cc1Cl` [Example 184]: the EC50 (in test [1]; at human TGR5) was 0.126 to 1 µM in each case.
